Like-named read-outs stand apart in the source and are kept apart here.
Target: CB1 (mutant) (Homo sapiens, UniProt P21554)
Test: R-SAT functional receptor assay, CB1 (mutant, truncated after amino acid 417)
Type: cell-based
Settings: R-SAT CB1; for Emax / % Inhibition: receptor form not stated, relative to SR141716 (100%); for Emax: read-out: % Inhibition; for IC50 / pIC50: receptor form (mutant or wild-type) not stated
[1] = Appendix A, read-out: pIC50 (converted)

Chain of CB1 (mutant) (P21554 1-417, change not shown): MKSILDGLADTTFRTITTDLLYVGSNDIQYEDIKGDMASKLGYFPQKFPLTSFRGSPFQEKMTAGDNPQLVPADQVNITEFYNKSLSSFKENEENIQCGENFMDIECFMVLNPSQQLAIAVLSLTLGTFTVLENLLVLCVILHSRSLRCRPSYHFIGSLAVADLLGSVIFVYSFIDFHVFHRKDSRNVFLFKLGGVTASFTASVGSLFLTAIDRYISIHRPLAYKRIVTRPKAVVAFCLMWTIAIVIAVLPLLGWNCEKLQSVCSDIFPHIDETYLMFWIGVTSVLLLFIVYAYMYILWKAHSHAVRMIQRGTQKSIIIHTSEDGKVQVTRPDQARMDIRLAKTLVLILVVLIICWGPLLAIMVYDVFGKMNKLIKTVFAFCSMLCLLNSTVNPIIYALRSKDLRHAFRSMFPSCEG

Emax (Appendix A) [%]	IC50 [1] [nM]	Structure (SMILES)	other results
87		O=C(NN1CCCCC1)c1ccc2c(c1)N=C(C1CCCCC1)c1ccccc1C2	
0		CON(C)C(=O)c1ccc2c(c1)N=C(c1ccc(Cl)c(Cl)c1)c1ccccc1S2	
86		CC(C)CNC(=O)c1ccc2c(c1)N=C(c1ccccc1Cl)c1ccccc1S2	
85		O=C(NN1CCCC1)c1ccc2c(c1)N=C(c1cccc(Cl)c1)c1ccccc1S2	
85		CCCCNC(=O)c1ccc2c(c1)N=C(c1ncccc1C)c1ccccc1S2	
26		O=C(c1ccc2c(c1)N=C(C1CCCCC1)c1ccccc1S2)N1CCCCC1	
83		CC(C)NC(=O)c1ccc2c(c1)N=C(c1ccc(Br)cc1)c1ccccc1S2	
67		O=C(NN1CCCC1)c1ccc2c(c1)N=C(c1cccc(F)c1)c1ccccc1S2	
87		Cc1cccnc1C1=Nc2cc(C(=O)NCC(C)C)ccc2Sc2ccccc21	
84		CCCCN(C)C(=O)c1ccc2c(c1)N=C(c1ccc(Cl)cc1F)c1ccccc1S2	
91		COc1ccccc1C1=Nc2cc(C(=O)NCCC(C)C)ccc2Sc2ccccc21	
89		CCCCNC(=O)c1ccc2c(c1)N=C(c1ccccc1Cl)c1ccccc1S2	
94		O=C(NCc1ccncc1)c1ccc2c(c1)N=C(c1ccccc1F)c1ccccc1S2	
95		O=C(NCc1ccco1)c1ccc2c(c1)N=C(c1ccccc1Cl)c1ccccc1S2	
72		O=C(NCc1cccnc1)c1ccc2c(c1)N=C(c1ccccc1Cl)c1ccccc1S2	
61		O=C(NCc1ccc(F)cc1)c1ccc2c(c1)N=C(c1ccc(F)cc1)c1ccccc1N2	
1		CCOCCNC(=O)c1ccc2c(c1)N=C(NCc1ccc(Cl)cc1)c1ccccc1S2	
115		CCCC1=Nc2cc(C(=O)NCCCN3CCC(Cc4ccccc4)CC3)ccc2Sc2ccccc21	
76		O=C(NN1CCCCC1)c1ccc2c(c1)N=C(N1CCOCC1)c1ccccc1S2	
100	1	O=C(NCCCC(F)(F)F)c1ccc2c(c1)N=C(c1cccc(F)c1)c1ccccc1S2 [drawing 547]	
85	39.8	O=C(NCc1ccccc1Br)c1ccc2c(c1)N=C(C1CCCCC1)c1ccccc1S2 [drawing 548]	
96	1.58	O=C(NCCC(F)(F)F)c1ccc2c(c1)N=C(c1cccc(Cl)c1)c1ccccc1S2 [drawing 549]	
78	39.8	CC(C)NC(=O)c1ccc2c(c1)N=C(c1ccc(Cl)s1)c1ccccc1S2 [drawing 550]	

Emax (Appendix A) [%]	IC50 [1] [nM]	Structure (SMILES)	other results
		CC(C)CNC(=O)c1ccc2c(c1)N=C(c1ccc(Cl)s1)c1ccccc1S2 [drawing 551]	pIC50 (Appendix A): 8.7
95	50.1	CCCCNC(=O)c1cc2c(cc1O)Sc1ccccc1C(c1ccc(Cl)cc1)=N2 [drawing 552]	
114	2	O=C(NCc1cccs1)c1ccc2c(c1)N=C(c1ccc(Cl)s1)c1ccccc1S2 [drawing 553]	
84	50.1	COc1cccc(C2=Nc3cc(C(=O)NCc4ccc(C)o4)ccc3Sc3ccccc32)n1 [drawing 554]	
90	2	O=C(NCCCC(F)(F)F)c1ccc2c(c1)N=C(c1ccsc1)c1ccccc1S2 [drawing 555]	
112	50.1	CCCCNC(=O)c1ccc2c(c1)N=C(c1ccc(Cl)cc1)c1cc(Cl)ccc1S2 [drawing 556]	
96	2.51	Cc1csc(CNC(=O)c2ccc3c(c2)N=C(c2cccc(F)c2)c2ccccc2S3)c1 [drawing 557]	
123	50.1	CC(C)CNC(=O)c1ccc2c(c1)N=C(c1ccc(Cl)cn1)c1ccc(F)cc1S2 [drawing 558]	
103	2.51	O=C(NCCCC(F)(F)F)c1ccc2c(c1)N=C(c1ccc(Cl)s1)c1ccccc1S2 [drawing 559]	
100	50.1	CCCCNC(=O)c1ccc2c(c1)N=C(c1ccc(Cl)cn1)c1cc(F)ccc1S2 [drawing 560]	
85	2.51	Cc1csc(CNC(=O)c2ccc3c(c2)N=C(c2cccc(C)n2)c2ccccc2S3)c1 [drawing 561]	
96	50.1	O=C(NCCc1ccccn1)c1ccc2c(c1)N=C(c1ccc(Cl)cc1F)c1ccccc1S2 [drawing 562]	
93	2.51	Cc1csc(CNC(=O)c2ccc3c(c2)N=C(c2ccsc2)c2ccccc2S3)c1 [drawing 563]	
79	50.1	O=C(NC1CCC(F)(F)CC1)c1ccc2c(c1)N=C(c1ccccn1)c1ccccc1S2 [drawing 564]	
		CC(C)CNC(=O)c1ccc2c(c1)N=C(c1cccc(Cl)c1)c1ccccc1S2 [drawing 565]	% Inhibition (Appendix A): 105%
115	2.51	CC(C)CCNC(=O)c1ccc2c(c1)N=C(c1cccc(Cl)c1)c1ccccc1S2 [drawing 567]	
85	50.1	O=C(NCc1ccc(Cl)cc1Cl)c1ccc2c(c1)N=C(c1ccccc1F)c1ccccc1S2 [drawing 568]	
106	2.51	O=C(NCCc1ccc(Cl)cc1)c1ccc2c(c1)N=C(c1cccc(Cl)c1)c1ccccc1S2 [drawing 569]	
101	50.1	CCCC1=Nc2cc(C(=O)NCCc3ccc(OC)cc3OC)ccc2Sc2ccccc21 [drawing 570]	
97	2.51	O=C(NCc1cccs1)c1ccc2c(c1)N=C(c1ccc(F)cc1)c1ccccc1S2 [drawing 571]	
88	50.1	Cc1ccsc1C1=Nc2cc(C(=O)NC3CCCCC3)ccc2Sc2ccccc21 [drawing 572]	
108	2.51	O=C(NCc1cccs1)c1ccc2c(c1)N=C(c1cccc(Cl)c1)c1ccccc1S2 [drawing 573]	
	3.16	CCCCNC(=O)c1ccc2c(c1)N=C(c1ccc(Cl)s1)c1ccccc1S2 [drawing 575]	% Inhibition (Appendix A): 97%

Emax (Appendix A) [%]	IC50 [1] [nM]	Structure (SMILES)	other results
98	50.1	CC(C)NC(=O)c1ccc2c(c1)N=C(c1ccc(Cl)cc1)c1ccccc1S2 [drawing 576]	
65	3.16	Cc1ccc(CNC(=O)c2ccc3c(c2)N=C(c2ccc(F)cc2)c2ccccc2S3)o1 [drawing 577]	
87	50.1	O=C(NN1CCCCCC1)c1ccc2c(c1)N=C(c1ccccc1F)c1ccccc1S2 [drawing 578]	
112	3.16	O=C(NCc1cccc(Cl)c1)c1ccc2c(c1)N=C(c1ccc(Cl)cc1)c1ccccc1S2 [drawing 579]	
90	3.16	CC(C)CNC(=O)c1ccc2c(c1)N=C(c1ccsc1)c1ccccc1S2 [drawing 581]	
87	50.1	CC(NC(=O)c1ccc2c(c1)N=C(c1cccc(Cl)c1)c1ccccc1S2)c1ccccc1 (stereo not shown) [drawing 582]	
100	3.16	O=C(NCc1ccco1)c1ccc2c(c1)N=C(c1cccc(Cl)c1)c1ccccc1S2 [drawing 583]	
112	3.16	CC(CNC(=O)c1ccc2c(c1)N=C(c1cccc(Cl)c1)c1ccccc1S2)c1ccccc1 (stereo not shown) [drawing 587]	
85	50.1	O=C(Cc1ccccc1)NNC(=O)c1ccc2c(c1)N=C(c1ccc(Cl)cc1)c1ccccc1S2 [drawing 588]	
106	3.16	O=C(NCc1ccc(F)cc1)c1ccc2c(c1)N=C(c1ccc(Cl)cc1)c1ccccc1S2 [drawing 589]	
102	3.16	O=C(NCc1ccc(F)cc1)c1ccc2c(c1)N=C(C1CCCCC1)c1ccccc1S2 [drawing 591]	
		O=C(NCc1cccs1)c1ccc2c(c1)N=C(c1cccc(F)c1)c1ccccc1S2 [drawing 593]	pIC50 (Appendix A): 8.5; % Inhibition (Appendix A): 93%
86	50.1	O=C(NCc1ccccc1Cl)c1ccc2c(c1)N=C(c1ccccc1)c1ccccc1S2 [drawing 594]	
100	3.16	O=C(NCc1cccs1)c1ccc2c(c1)N=C(c1cccc(F)c1)c1ccccc1S2 [drawing 595]	
94	50.1	CCOCCNC(=O)c1ccc2c(c1)N=C(c1ccc(F)cc1)c1ccccc1S2 [drawing 596]	
95	3.98	O=C(NN1CCCCCC1)c1ccc2c(c1)N=C(c1cccc(Cl)c1)c1ccccc1S2 [drawing 597]	
111	3.98	Cc1ccsc1C1=Nc2cc(C(=O)NCCCC(F)(F)F)ccc2Sc2ccccc21 [drawing 599]	
98	50.1	O=C(NCCc1ccccc1)c1ccc2c(c1)N=C(c1ccccc1F)c1ccccc1S2 [drawing 600]	
105	3.98	O=C(NCCCC(F)(F)F)c1ccc2c(c1)N=C(c1ccc(Cl)cc1)c1ccccc1S2 [drawing 601]	
65	50.1	O=C(NCc1ccccc1Br)c1ccc2c(c1)N=C(c1ccccc1F)c1ccccc1S2 [drawing 602]	
112	3.98	O=C(NCc1cccc(Cl)c1)c1ccc2c(c1)N=C(c1cccc(Cl)c1)c1ccccc1S2 [drawing 603]	

Structure (SMILES)	Emax (Appendix A) [%]	IC50 [1] [nM]	other results
CCCC1=Nc2cc(C(=O)NCc3ccccc3OC)ccc2Sc2ccccc21	91		IC50 (pIC50, Appendix A): 63.1 nM
CCCCN(C)C(=O)c1ccc2c(c1)N=C(c1cccc(Cl)c1)c1ccccc1S2	82		IC50 (pIC50, Appendix A): 79.4 nM
O=C(NN1CCCCC1)c1ccc2c(c1)N=C(c1ccccc1F)c1ccccc1S2	104		IC50 (pIC50, Appendix A): 100 nM
O=C(NN1CCCCCC1)c1ccc2c(c1)N=C(c1sccc1Cl)c1ccccc1S2	82		IC50 (pIC50, Appendix A): 20 nM
CCCC1=Nc2cc(C(=O)NCc3ccc(OC)cc3)ccc2Sc2ccccc21	96		IC50 (pIC50, Appendix A): 25.1 nM
O=C(NCc1ccncc1)c1ccc2c(c1)N=C(c1ccc(Br)cc1)c1ccccc1S2 [drawing 586]	84		IC50 (pIC50, Appendix A): 50.1 nM
O=C(NC1CCCCC1)c1ccc2c(c1)N=C(c1ccccn1)c1ccccc1S2 [drawing 598]	112		IC50 (pIC50, Appendix A): 50.1 nM

Reference: patent US20080090805A1, “CB-1 MODULATING COMPOUNDS AND THEIR USE” (ACADIA PHARMACEUTICALS INC., priority 2005, published 2008)
